Measurements published in US20060073572A1, “Cytokine structurally related to IL-17” (The Johns Hopkins University, priority 2001, published 2006).
“Also recorded” adds a separate entry of the source.

Columns and labels:
Type in all cases: cell-based, human
IL-8 [1] = assay: IL-8 expression in HUVECs (ELISA, RT-PCR)
Experimental: (§1) FIG. 5. Analysis of IL-6 (FIG. 5A) and IL-8 (FIG. 5B) expression in primary bronchial epithelial cells (PBECs) and human umbilical vein endothelial cells (HUVECs) stimulated by ML-1. The IL-6 and IL-8 protein release in the supernatant was determined by ELISA as described in Example 8. The results were expressed as mean+SD (n=6). *p<0.05 was considered significant vs control.
(§2) FIG. 7A-7D. Effect of PD98059 on IL-6 (FIG. 7A) and IL-8 (FIG. 7B) protein production in PBECs and HUVECs. The cells were preincubated with varying concentrations of PD98059, SB202190, or DMSO vehicle control for 1 hour, followed by stimulation with ML-1 (100 ng/ml) for 24 hours. The results are expressed as the mean+SD (n=6). *P<0.05 when compared to cultures without the addition of PD98059. FIGS. 7C and 7D. Semi-quantitative analysis of gene expression for IL-6 (FIG. 7C) and IL-8 (FIG. 7D) by RT-PCR. The cells were preincubated as described above and treated with ML-1 for 4 hours. RT-PCR was performed as described in Example 8. The results shown are representative of three separate experiments.
(§3) Human umbilical vein endothelial cells (HUVECs) were obtained from Clonetics and cultured in endothelial cell growth media (EGM; Clonetics) containing 12 μg/ml bovine brain extract, 10 ng/ml EGF, 1 μg/ml hydrocortisone, 50 μg/ml gentimicin, 50 ng/ml amphotericin B, and 5% FBS amphotericin-B (Clonetics).
(§4) PBECs and HUVECs were treated with ML-1 100 ng/ml of ML-1 for various time points. Total RNA was extracted using RNeasy (Qiagen) from 1×10^6 cells 4 hours after stimulation or exchange of media. […]
(§5) The amplification reaction was performed for 23 cycles with denaturation at 94° C. for 45 seconds, annealing at 56° C. for 45 seconds, and extension at 72° C. for 45 seconds. PCR products were detected by ethidium bromide staining and normalized by the intensity of an amplified housekeeping gene, G3PDH (see above). […] IL-6 and IL-8 protein levels in the collected supernatants were determined with a commercially available ELISA kit (Biosource, Camarillo, Calif.) according to the manufacturer's instructions.

IL-6 [2] = assay: IL-6 expression in HUVECs (ELISA, RT-PCR)
Experimental: as §1, §2, §3, §4, §5

ERK1/2 [3] = assay: Western blotting of ERK1/2 phosphorylation in HUVECs; conditions: pre-incubation with 10 μM for 1 hour, then ML-1 for 10 minutes
Experimental: (§6) FIGS. 6A-6D. Kinetic activation of ERK1/2 by ML-1 in PBECs (FIG. 6A) and HUVECs (FIG. 6B). The cells were incubated with or without ML-1 (100 ng/ml) for different time points as indicated. Western blotting analysis was performed by using antibodies against different MAP kinases as described in Example 8. FIGS. 6C and 6D. Effect of PD98059 on ML-1-induced phosphorylation of ERK1/2 in PBECs (FIG. 6C) and HUVECs (FIG. 6D). The cells were preincubated with PD98059 ([…]) or DMSO vehicle control for 1 hour, followed by stimulation of PBECs and HUVECs with medium or ML-1 for 20 minutes or 10 minutes, respectively. The results shown are representative of three separate experiments.
(§7) For analysis of activation of MAP kinases, PBECs were treated with IL-17 (100 ng/ml) for various time periods, with or without the MEK 1/2 inhibitor PD98059 ([…]; Calbiochem, La Jolla, Calif.) (15), the p38 inhibitor SB202190 (0.5-10 μM; ref. 16), or a vehicle control, DMSO (Me2SO) for 1 hour. […] Following the treatment, the cells were washed with ice-cold PBS. Cell pellets were immediately lysed in cold lysis buffer [20 mM Tris (pH 7.4), 4 mM EDTA, 2 mM EGTA, 1 mM PMSF, […] aprotinin, 200 mg/ml leupeptin, 50 mM NaF, 5 mM NaRP2O7, 1 mM Na3VO4, and 1% Nonidet P40; all purchased from Sigma]. Extracts (1×10^6 cell equivalents/lane) were suspended with an equal volume of 2× loading buffer [0.1 M Tris-HCl (pH 6.8)], 4% SDS, 0.005% bromophenol blue, and 20% glycerol) containing 2-ME (0.7 M) and subjected to 4-20% Tris-glycine gel electrophoresis (NOVEX, San Diego, Calif.). Gels were then transferred to PVDF membranes (BIO-RAD, Hercules, Calif.) with a Trans Blot apparatus (NOVEX). The membranes were immersed overnight in This-buffered saline/Tween 20 containing 5% nonfat dry skim milk (Carnation, Los Angeles, Calif.).
(§8) Immunoreactive proteins were detected using antibodies against various kinases and phosphorylated kinases. […] Western blotting detection reagents (Amersham) and Hyper ECL luminescence detection film (Amersham) were used. […]

IL-8 [4] = assay: IL-8 expression in PBECs (ELISA, RT-PCR)
Experimental: as §1, §2
(§9) Primary bronchial epithelial cells (PBECs) were purchased from Clonetics (San Diego, Calif.) and cultured in bronchial epithelial basal medium (Clonetics) containing 0.5 ng/ml human recombinant epidermal growth factor (EGF), 52 mg/ml bovine pituitary extract, 0.1 mg/ml retinoic acid, 0.5 mg/ml hydrocortisone, 5 mg/ml insulin, 10 mg/ml transferrin, 0.5 mg/ml epinephrine, 6.5 ng/ml triiodothyronine, […] gentamicin, and 50 pg/ml amphotericin-B (Clonetics). […]
as §5

ERK1/2 [5] = assay: Western blotting of ERK1/2 phosphorylation in PBECs; conditions: pre-incubation with 10 μM for 1 hour, then ML-1 for 20 minutes
Experimental: as §6, §7, §8

IL-6 [6] = assay: IL-6 expression in PBECs (ELISA, RT-PCR)
Experimental: as §1, §2, §9, §5

IL-8 [7] = assay: IL-8 expression in NHBE cells (RT-PCR and ELISA); conditions: 100 ng/ml
Source text: FIGS. 3A-3C. FIG. 3A, Expression of ML-1 protein in COS-7 cells. COS-7 cells were transfected with a gene construct containing full-length ML-1 sequence and a tag sequence encoding poly (His) peptide. ML-1-His fusion proteins were purified from supernatants of the transfected cells using a His affinity column, run on an 8-16% SDS-polyacrylamide gel under reducing conditions, and analyzed by Western Blot using anti-His monoclonal antibody. Lane 1 represents a mock-transfected sample. Lane 2 represents an ML-1-transfected sample. The location of a 19.5 kd marker is indicated. FIG. 3B, Effect of ML-1 on IL-8 gene expression. Human primary bronchial epithelial cells (NHBE cells) were treated with different stimuli. The cells were harvested 4 hours after stimulation, and total RNA was extracted and subjected to RT-PCR using IL-8 and G3PDH primers. Lane 1, medium only; lane 2, cells treated with rIL-17 (100 ng/ml); lane 3, cells treated with purified His-tagged protein (Positope, 100 ng/ml); lane 4, cells treated with ML-1 (100 ng/ml). FIG. 3C, Effect of ML-1 on IL-8 protein production. NHBE cells were treated with the same stimuli used in FIG. 3B, and the supernatants were harvested 48 hours after stimulation.
Primary human bronchial epithelial (NHBE) cells were purchased from Clonetics (San Diego, Calif.) and cultured according to the manufacturer's instructions. The cells were treated with IL-17 (100 ng/ml), ML-1 (100 ng/ml), or a control His-tagged protein (Positope, 100 ng/ml; Invitrogen, Carlsbad, Calif.). The affinity-purified control His protein was dissolved in the same buffer as ML-1. Total RNA was extracted using Rneasy (Qiagen, Chatsworth, Calif.) from 1×10^6 cells 4 hours after stimulation or exchange of media. The protocol for cDNA synthesis was that described above. For PCR, the sequences of PCR primers were based on the human IL-8 cDNA sequence. The sequences of PCR primers for IL-8 were: forward, 5′-TCTGCAGCTCTGTGTGAAG-3′ (SEQ ID NO:14) and reverse, 5′-TAATTTCTGTGTTGGCGCA-3′ (SEQ ID NO:15). The amplification reaction was performed for 23 cycles with denaturation at 94° C. for 45 seconds, annealing at 56° C. for 45 seconds, and extension at 72° C. for 45 seconds PCR products were detected by ethidium bromide staining. The expected size for IL-8 was 154 basepairs. IL-8 protein levels in the collected supernatants were determined with a commercially available ELISA kit (Biosource, Camarillo, Calif.) according to the manufacturer's instructions.

ICAM-1 = ICAM-1 surface protein expression on NHBE cells by flow cytometry; conditions: 100 ng/ml, 48 hours, mean±SD (n=4)
Experimental: FIG. 4. Effect of ML-1 on ICAM-1 surface expression on NHBE cells by Flow Cytometry. NHBE cells were treated for 48 hours under following conditions: medium only, rIL-17 (100 ng/ml), purified His-tagged protein (Positope, 100 ng/ml), or ML-1 (100 ng/ml) as indicated. The mean fluorescence intensity of ICAM-1 surface expression was measured. The experiment was conducted four times. The results shown are from a representative experiment. * p<0.01.
To determine whether ML-1 is able to induce ICAM-1 expression on NHBE cells, surface expression of ICAM-1 on NHBE cells was measured and the effects of ML-1 and IL-17 were compared.
NHBE cells were treated with IL-17 (100 ng/ml), ML-1 (100 ng/ml), or a control His protein (Positope, 100 ng/ml). The cells were harvested following treatment with 0.1% trypsin-0.02% EDTA at 37° C. for 6 minutes and suspended in PBS containing 2% BSA and 0.02 % sodium azide. One million cells were incubated with a mouse anti-human ICAM-1 monoclonal antibody (R&D Systems, Minneapolis, Minn.) on ice for 30 minutes. […] After three additional washes in PBS, the cells were resuspended in PBS and immediately analyzed with a FACScan flow cytometer (Becton Dickinson, Mountain View, Calif.). […] Indices are expressed as mean±SD (n=4).

[8] = 1 hour preincubation, varying concentrations, ML-1 100 ng/ml 24 hours
[9] = preincubation, ML-1 for 4 hours, semi-quantitative RT-PCR

Row | Compound | effect on ML-1-induced IL-8 protein production (IL-8 [1]; [8]) | effect on ML-1-induced IL-8 gene expression (IL-8 [1]; [9]) | effect on ML-1-induced IL-6 protein production (IL-6 [2]; [8]) | effect on ML-1-induced IL-6 gene expression (IL-6 [2]; [9]) | effect on ML-1-induced activation of ERK1/2 (ERK1/2 [3]) | effect on ML-1-induced IL-8 protein production (IL-8 [4]; [8]) | effect on ML-1-induced IL-8 gene expression (IL-8 [4]; [9]) | effect on ML-1-induced activation of ERK1/2 (ERK1/2 [5]) | effect on ML-1-induced IL-6 protein production (IL-6 [6]; [8]) | effect on ML-1-induced IL-6 gene expression (IL-6 [6]; [9]) | IL-8 protein expression (IL-8 [7]; ELISA of supernatants, 48 hours) | IL-8 transcript expression (IL-8 [7]; RT-PCR) | ICAM-1 surface expression, mean fluorescence intensity (MFI) (ICAM-1)
1 | COc1cccc(-c2cc(=O)c3ccccc3o2)c1N [PD98059] | inhibited; also recorded: not completely inhibited | Decreased levels | inhibited; also recorded: not completely inhibited | Decreased levels | diminished | inhibited; also recorded: not completely inhibited | Decreased levels | diminished | inhibited; also recorded: not completely inhibited | Decreased levels |  |  | 
2 | IL-17: human IL-17, T-cell derived homodimeric cytokine, used as comparator |  |  |  |  |  |  |  |  |  |  | enhanced | enhanced | 10.07±1.22
